Data: patent US12115373B2, “Methods for reducing the risk of strokes by pharmacotherapy to reduce the number and duration of atrial fibrillations” (Xyra, LLC, priority 2022, dated 2024)

Legend:
Type in all cases: in vivo
[1] = Serum half-life of budiodarone; details: human
[2] = system: patients with either paroxysmal or persistent AFib; assay: Clinical trial: episodes of long duration AFib (>5 hrs), pacemaker monitoring (Example 4); details: for Episodes of AFib > 5 hrs: Duration, percentage relative to the baseline / Episodes of AFib > 5 hrs: Duration / Episodes of AFib > 5 hrs: Number: 2 week period; for Episodes of AFib > 5 hrs: Duration / Episodes of AFib > 5 hrs: Number: 6 patients
Procedure: This example is a clinical trial evaluation of budiodarone in treating 6 patients with either paroxysmal or persistent AFib who previously evidenced episodes of long duration AFib (greater than 5 hrs). In this example, the patients' heart rhythms were continuously monitored over a twelve-week period with a pacemaker (surgically invasive procedure) and were treated with different doses (2 weeks each) of budiodarone. In addition, during this trial, the patients were under continuous monitoring and constant clinician supervision.
The purpose of this example is to establish whether budiodarone reduces long duration AFib lasting more than 5 hours in a clinical study setting using a pacemaker to evaluate the heart rhythm.
“Number” indicates the number of long duration episodes of AFib having a duration of greater than 5 hours. “Duration” indicates the amount of time during the 2 week period spent in the greater than 5 hour duration AFib, indicated in hours and a percentage relative to the baseline measurement. […] Finally, the 800 mg bid performed best. In all doses, the reduction in episodes of AFib of greater than 5 hours were above 85% and the corresponding reduction in AFib burden was above 90%.

[3] = system: patients with either paroxysmal or persistent AFib; assay: Clinical trial: episodes of AFib greater than 6 minutes (0.1 hour), pacemaker monitoring (Example 6); details: for Episodes of AFib > 0.1 hrs: Duration, percent of Off Drug (baseline) / Episodes of AFib > 0.1 hrs: Number, percent of Off Drug (baseline): 2 weeks (baseline 4 weeks); for Episodes of AFib > 0.1 hrs: Number / Episodes of AFib > 0.1 hrs: Duration: all tested patients, 2 weeks; for Episodes of AFib > 0.1 hrs: Duration: cumulative; for Episodes of AFib > 0.1 hrs: Fraction of hours: hours in AFib / hours monitored
Procedure: In this example, the patients' heart rhythm was continuously monitored over a twelve-week period with a pacemaker. The patients were treated with different doses (2 weeks each) of budiodarone. In addition, during this trial, the patients were under continuous monitoring and clinician supervision.
The “Number” indicates the number of AFib episodes greater than 6 minutes for all tested patients over the trial period (4 weeks for based line, 2 weeks experimental). The “Duration” in hours indicates the cumulative duration in hours over the trial period that the tested patients were measured in episodes of AFib greater than 6 minutes.
Table 8 provides a summary of the fraction of time and the number of hours per week that the patients were in episodes of AFib greater than 6 minutes in duration, on average. The percent time in AFib was reduced by 90% for doses of budiodarone at 600 mg bid and 800 mg bid.

**Q.** What does the source list for `CC[C@H](C)OC(=O)Cc1oc2ccccc2c1C(=O)c1cc(I)c(OCCN(CC)CC)c(I)c1` [budiodarone, (S)-sec-butyl2-(3-(4-(2-(diethylamino)ethoxy)-3,5-diiodobenzoyl)benzofuran-2-yl)acetate]?
**A.** half-life ([1]; after administration): 6 to 7 h; time to reach steady state ([1]; read-out: steady state (about 5x the serum half-life)): 1800 to 2100 min; Episodes of AFib > 5 hrs: Duration, percentage relative to the baseline ([2]; 200 mg bid): (3.5%); Episodes of AFib > 5 hrs: Duration ([2]; 200 mg bid): 17 h; Episodes of AFib > 5 hrs: Number ([2]; 200 mg bid): 3; Episodes of AFib > 5 hrs: Duration, percentage relative to the baseline ([2]; 400 mg bid): (7.7%); Episodes of AFib > 5 hrs: Duration ([2]; 400 mg bid): 38 h; Episodes of AFib > 5 hrs: Number ([2]; 400 mg bid): 4; Episodes of AFib > 5 hrs: Duration, percentage relative to the baseline ([2]; 600 mg bid): (2.8%); Episodes of AFib > 5 hrs: Duration ([2]; 600 mg bid): 14 h; Episodes of AFib > 5 hrs: Number ([2]; 600 mg bid): 2; Episodes of AFib > 5 hrs: Duration, percentage relative to the baseline ([2]; 800 mg bid): (1%); Episodes of AFib > 5 hrs: Duration ([2]; 800 mg bid): 5 h; Episodes of AFib > 5 hrs: Number ([2]; 800 mg bid): 1; corresponding reduction in AFib burden (episodes > 5 hours) ([2]; in all doses (200-800 mg bid)): above 90%; reduction in episodes of AFib of greater than 5 hours ([2]; in all doses (200-800 mg bid)): above 85%; Episodes of AFib > 0.1 hrs: Duration in hrs/week (average per patient) ([3]; 200 mg bid): 5.9 hrs/week; Episodes of AFib > 0.1 hrs: Fraction of hours (percent), percent time in AFib ([3]; 200 mg bid): (3.5%); Episodes of AFib > 0.1 hrs: Duration, percent of Off Drug (baseline) ([3]; 200 mg bid): 11%; Episodes of AFib > 0.1 hrs: Number, percent of Off Drug (baseline) ([3]; 200 mg bid): 52 (52%); Episodes of AFib > 0.1 hrs: Number ([3]; 200 mg bid): 52 (52%); Episodes of AFib > 0.1 hrs: Duration ([3]; 200 mg bid): 71 h; Episodes of AFib > 0.1 hrs: Fraction of hours ([3]; 200 mg bid): 71/2016; drop in percent time in AFib ([3]; 200 mg twice a day): 76.7%; Episodes of AFib > 0.1 hrs: Duration in hrs/week (average per patient) ([3]; 400 mg bid): 5 hrs/week; Episodes of AFib > 0.1 hrs: Fraction of hours (percent), percent time in AFib ([3]; 400 mg bid): (3.0%); Episodes of AFib > 0.1 hrs: Duration, percent of Off Drug (baseline) ([3]; 400 mg bid): 10%; Episodes of AFib > 0.1 hrs: Number, percent of Off Drug (baseline) ([3]; 400 mg bid): 28 (28%); Episodes of AFib > 0.1 hrs: Number ([3]; 400 mg bid): 28 (28%); Episodes of AFib > 0.1 hrs: Duration ([3]; 400 mg bid): 61 h; Episodes of AFib > 0.1 hrs: Fraction of hours ([3]; 400 mg bid): 61/2016; Episodes of AFib > 0.1 hrs: Duration in hrs/week (average per patient) ([3]; 600 mg bid): 2.5 hrs/week; Episodes of AFib > 0.1 hrs: Fraction of hours (percent), percent time in AFib ([3]; 600 mg bid): (1.5%); reduction of percent time in AFib ([3]; 600 mg bid and 800 mg bid (Table 8)): 90%; reduction of the number of episodes of AFib longer than 6 minutes ([3]; 600 mg bid or 800 mg bid): more than 80%; Episodes of AFib > 0.1 hrs: Duration, percent of Off Drug (baseline) ([3]; 600 mg bid): 4.8%; Episodes of AFib > 0.1 hrs: Number, percent of Off Drug (baseline) ([3]; 600 mg bid): 16 (16%); Episodes of AFib > 0.1 hrs: Number ([3]; 600 mg bid): 16 (16%); Episodes of AFib > 0.1 hrs: Duration ([3]; 600 mg bid): 30 h; Episodes of AFib > 0.1 hrs: Fraction of hours ([3]; 600 mg bid): 30/2016; drop in percent time in AFib ([3]; 600 mg twice a day): 90%; Episodes of AFib > 0.1 hrs: Duration in hrs/week (average per patient) ([3]; 800 mg bid): 1.3 hrs/week; Episodes of AFib > 0.1 hrs: Fraction of hours (percent), percent time in AFib ([3]; 800 mg bid): (0.8%); Episodes of AFib > 0.1 hrs: Duration, percent of Off Drug (baseline) ([3]; 800 mg bid): 2.5%; Episodes of AFib > 0.1 hrs: Number, percent of Off Drug (baseline) ([3]; 800 mg bid): 15 (15%); Episodes of AFib > 0.1 hrs: Number ([3]; 800 mg bid): 15 (15%); Episodes of AFib > 0.1 hrs: Duration ([3]; 800 mg bid): 16 h; Episodes of AFib > 0.1 hrs: Fraction of hours ([3]; 800 mg bid): 16/2016; drop in percent time in AFib ([3]; 800 mg twice a day): 94.8%
